According to PubChem BioAssay (NCI):
Values joined by “and” are separate entries in the source; they are usually repeats but may differ in a detail not shown here. Equal values may be shown once.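 96-well plates; 48 h exposure; 5 concentrations. Endpoints by linear interpolation between flanking doses. Not reached: highest tested concentration assigned. GI50 marks 50% less growth. TGI is the concentration that stops growth completely.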

Assays:
Assay in all cases: NCI anticancer screen, dose series, 48 h
HOP-92 NSCLC = test system: HOP-92 NSCLC
NCI-H460 lung = test system: NCI-H460 lung
A549 NSCLC = test system: A549 NSCLC
MCF7 breast = test system: MCF7 breast
M14 melanoma = test system: M14 melanoma
SK-MEL-5 melanoma = test system: SK-MEL-5 melanoma
LOX IMVI melanoma = test system: LOX IMVI melanoma
COLO 205 colon = test system: COLO 205 colon
SK-OV-3 ovarian = test system: SK-OV-3 ovarian
OVCAR-3 ovarian = test system: OVCAR-3 ovarian

| SMILES | GI50 (HOP-92 NSCLC) [µM] | TGI (HOP-92 NSCLC) | GI50 (NCI-H460 lung) | TGI (NCI-H460 lung) | GI50 (A549 NSCLC) | TGI (A549 NSCLC) | GI50 (MCF7 breast) | TGI (MCF7 breast) | GI50 (M14 melanoma) [µM] | TGI (M14 melanoma) | GI50 (SK-MEL-5 melanoma) | TGI (SK-MEL-5 melanoma) | GI50 (LOX IMVI melanoma) | TGI (LOX IMVI melanoma) | GI50 (COLO 205 colon) | TGI (COLO 205 colon) | GI50 (SK-OV-3 ovarian) | TGI (SK-OV-3 ovarian) | GI50 (OVCAR-3 ovarian) | TGI (OVCAR-3 ovarian) |
| --- | --- | --- | --- | --- | --- | --- | --- | --- | --- | --- | --- | --- | --- | --- | --- | --- | --- | --- | --- | --- |
| CCOC(=O)c1c(C)n2c(=O)cc(C)c3c(OC(C)=O)c(OC(C)=O)cc1c32 | 4.78 | 41.5 µM | 4.01 µM | 18.9 µM | 5.86 µM | 52.3 µM | 3.27 µM | 14 µM | 3.96 | 18.2 µM | 3.78 µM | 13.4 µM | 4.52 µM | 22.9 µM | 4.62 µM | 18.7 µM | 11.8 µM | 87.5 µM | 3.49 µM | > 62.7 µM |
| Nc1ccccc1NC(=O)c1ccc(CN2CCC/C(=C\c3cccc(Cl)c3)C2=O)cc1 | 1.76 | 16.2 µM | 0.0962 µM | > 100 µM | 1.45 µM | 75.7 µM | 0.0332 µM | 26.6 µM | 0.0521 | 13.7 µM | 0.0836 µM | 1.08 µM | 0.0664 µM | 2.06 µM | 0.157 µM | – | 0.626 µM | 26.4 µM | 0.406 µM | 7.7 µM |
| CN(C)CCCNc1nccc(-c2c(-c3ccc(F)cc3)nn3cc(C(F)(F)F)ccc23)n1 | 3.61 | > 25 µM | 6.97 µM | > 25 µM | > 21.5 µM | > 25 µM | 7.77 µM | > 18.2 µM | 4.37 | 9.06 µM | 3.48 µM | 6.75 µM | 5.06 µM | 15.2 µM | 4.23 µM | 8.71 µM | 20.1 µM | > 25 µM | 8.88 µM | > 25 µM |
| Oc1cc(O)c2c(=S)cc(-c3ccc(Cl)cc3)oc2c1 | 1.62 | 5.11 µM | 2.96 µM | 13.3 µM | 6.58 µM | 36.8 µM | 0.111 µM | 11.4 µM | 3.22 | 14.8 µM | 1.89 µM | 5.04 µM | 2.92 µM | 11.6 µM | 15.3 µM | 33.6 µM | 2.77 µM | 18.2 µM | 1.52 µM | 8.94 µM |
| COc1ccc(-c2nn(-c3cccc(NC(=O)Nc4cc(C(F)(F)F)cc(C(F)(F)F)c4)c3)cc2-c2ccncc2)cc1Cl | 0.17 | 1.33 µM | 0.872 µM | 4.9 µM | 1.07 µM | 7.6 µM | 1.01 µM | 5.98 µM | 0.913 | 2.51 µM | 0.827 µM | 1.7 µM | 1.51 µM | 5.64 µM | 0.894 µM | 1.74 µM | 1.52 µM | 7.38 µM | 0.68 µM | 4.56 µM |
| O=C1/C(=C/c2ccccc2)CCC/C1=C\c1ccccc1 | 6.48 | 13 µM and 35.2 µM and 37.3 µM | 6.09 µM and 19.8 µM | 12 µM and 34 µM and 46.8 µM | 7.66 µM and 17.5 µM | 17.8 µM and 45.7 µM and 42.5 µM | 3.46 µM | 12.4 µM and 21 µM | 2.96 | 12.9 µM and 19 µM and 7.88 µM | 6.75 µM and 6.37 µM | 12 µM and 26.4 µM and 19.6 µM | 3.83 µM and 1.52 µM | 8.65 µM and 5.92 µM and 3.64 µM | 6.31 µM and 15.1 µM | 11.5 µM and 32.7 µM and 35.2 µM | 6.28 µM | 12 µM and 43.1 µM and 46.7 µM | 6.25 µM and 4.04 µM | 11.3 µM and 24 µM and 13 µM |
| C=CCN(/C=C1\C(=O)O[C@H](COC)[C@@]2(C)C1=C(O)C(=O)C1=C2[C@H](OC(C)=O)C[C@]2(C)C(=O)CC[C@@H]12)CC=C | – | 20 µM and 4.4 µM | 0.278 µM and 0.374 µM | 20 µM and > 100 µM | 0.151 µM and 0.361 µM | – | 0.186 µM and 0.257 µM | 5.95 µM and 22.8 µM | 2.98 | > 100 µM | 3.22 µM and 2.18 µM | 20 µM and 11.6 µM | 0.547 µM and 1.89 µM | 20 µM and 21.4 µM | 5.04 µM and 1.94 µM | 20 µM and 26.3 µM | 3.38 µM and 0.596 µM | 20 µM and 19.8 µM | – | 20 µM and 4.16 µM |
| COC(=O)[C@H](CC(C)C)NC(=O)NC(=O)NC(=O)CI | 2.14 | 4.98 µM | 18.7 µM | 41.5 µM | 20.3 µM | 39.6 µM | 1.8 µM | 4.33 µM | 2.03 | 4.94 µM | 16.4 µM | 30.3 µM | 1.64 µM | 3.24 µM | 1.79 µM | 3.47 µM | 17.6 µM | 31.8 µM | 1.99 µM | 3.51 µM |
| CC[CH2][Sn]([Cl])([Cl])[CH2]CC | 10.6 | 23.7 µM | 17.2 µM | 34.3 µM | 18.2 µM | 34.3 µM | 3.27 µM | 16.5 µM | 11.1 | 24.1 µM | 10.6 µM | 22.6 µM | 2.8 µM | 11.4 µM | 8.53 µM | 22.5 µM | 25.7 µM | 70.8 µM | 12.9 µM | 26.1 µM |
| O=C(CCCc1ccccn1)c1ccccc1 | – | > 100 µM | – | > 100 µM | – | > 100 µM | – | > 100 µM | – | > 100 µM | – | > 100 µM | – | > 100 µM | – | > 100 µM | – | > 100 µM | – | > 100 µM |
| CCOC(=O)C(=O)N=Nc1nc2c(O)c3ccccc3c(O)c2s1 | – | 23.1 µM | – | 26.7 µM | – | 17.6 µM | – | 30.4 µM | – | 4.7 µM | – | 3.62 µM | – | 3.88 µM | – | 25.2 µM | – | 34.4 µM | – | 4.07 µM |
| O=C1C(Cl)=C(Nc2cccc(O)c2)C(=O)N1c1ccc(Cl)c(Cl)c1 | 21.8 | 70.6 µM | 19.1 µM | 50.5 µM | 23.9 µM | 60.6 µM | 25.1 µM | 85.1 µM | 18.9 | 37.4 µM | 20 µM | 64.7 µM | 15.8 µM | 33.3 µM | 32 µM | 89.9 µM | 25.5 µM | 73.3 µM | 17.9 µM | 36.4 µM |
| c1ccc(-c2nn(-c3ccccc3)[n+](-c3cccc4ccccc34)n2)cc1 | 1.15 | 7.68 µM | 1.43 µM | 10.4 µM | 2.65 µM | > 100 µM | 0.335 µM | 10.6 µM | 3.09 | 23.1 µM | 0.674 µM | 4.1 µM | 1.23 µM | > 100 µM | 0.313 µM | 1.28 µM | 4.61 µM | > 100 µM | 1.11 µM | 19.1 µM |
